Test results reported in the NIST ThermoML archive (doi:10.1016/j.jct.2006.05.004).
Numbers after ± are expanded uncertainties.

Experiments:
[1] = xn = mol fraction of the nth substance listed; details: 298.15 K, 101 kPa, Liquid
[2] = excess molar enthalpy (molar enthalpy of mixing); xn = mol fraction of the nth substance listed; details: 298.15 K, 101 kPa, Liquid

BrCCCCBr [1,4-dibromobutane] + CCCC(=O)OC
Details	excess molar enthalpy [kcal/mol]	mass density [kg/m3]
[1], x2 = 0.121	–	1710.83 ± 5.9
[1], x2 = 0.1809	–	1656.55 ± 5.3
[1], x2 = 0.2384	–	1604.18 ± 4.9
[1], x2 = 0.2953	–	1552.31 ± 4.4
[1], x2 = 0.3601	–	1492.93 ± 3.9
[1], x2 = 0.4182	–	1439.44 ± 3.5
[1], x2 = 0.4848	–	1377.96 ± 3
[1], x2 = 0.5382	–	1328.46 ± 2.7
[1], x2 = 0.5989	–	1272 ± 2.3
[1], x2 = 0.653	–	1221.36 ± 2
[1], x2 = 0.7699	–	1111.48 ± 1.3
[1], x2 = 0.8252	–	1059.19 ± 1.1
[1], x2 = 0.8804	–	1006.8 ± 0.81
[2], x2 = 0.0662	0.0111 ± 0.00055	–
[2], x2 = 0.1525	0.019 ± 0.000669	–
[2], x2 = 0.2456	0.0232 ± 0.000741	–
[2], x2 = 0.3392	0.0233 ± 0.000741	–
[2], x2 = 0.4222	0.019 ± 0.000669	–
[2], x2 = 0.4708	0.0156 ± 0.000621	–
[2], x2 = 0.5515	0.00743 ± 0.000478	–
[2], x2 = 0.6276	0.000621 ± 0.000382	–
[2], x2 = 0.6882	-0.00366 ± 0.00043	–
[2], x2 = 0.7845	-0.0054 ± 0.000454	–
[2], x2 = 0.8702	-0.00452 ± 0.00043	–
[2], x2 = 0.9455	-0.00256 ± 0.000406	–

BrCCCCCBr [1,5-dibromopentane] + COC=O
Details	excess molar enthalpy [kcal/mol]	mass density [kg/m3]
[1], x2 = 0.1109	–	1653.22 ± 5.5
[1], x2 = 0.2235	–	1607 ± 4.9
[1], x2 = 0.3094	–	1567.09 ± 4.5
[1], x2 = 0.3956	–	1522.56 ± 4
[1], x2 = 0.4606	–	1485.39 ± 3.6
[1], x2 = 0.5307	–	1441.42 ± 3.3
[1], x2 = 0.5985	–	1394.16 ± 2.9
[1], x2 = 0.6548	–	1350.94 ± 2.6
[1], x2 = 0.7035	–	1310.4 ± 2.4
[1], x2 = 0.753	–	1265.54 ± 2.1
[1], x2 = 0.7889	–	1230.37 ± 1.9
[1], x2 = 0.8347	–	1181.99 ± 1.6
[1], x2 = 0.9065	–	1097.57 ± 1.2
[1], x2 = 0.9653	–	1017.86 ± 0.91
[1], x2 = 0.9733	–	1006.52 ± 0.87
[2], x2 = 0.1086	0.101 ± 0.00194	–
[2], x2 = 0.2259	0.174 ± 0.00311	–
[2], x2 = 0.336	0.227 ± 0.00382	–
[2], x2 = 0.4363	0.255 ± 0.0043	–
[2], x2 = 0.5163	0.265 ± 0.00454	–
[2], x2 = 0.5848	0.264 ± 0.00454	–
[2], x2 = 0.64	0.254 ± 0.0043	–
[2], x2 = 0.6892	0.241 ± 0.00406	–
[2], x2 = 0.7311	0.225 ± 0.00382	–
[2], x2 = 0.7667	0.207 ± 0.00359	–
[2], x2 = 0.8146	0.18 ± 0.00311	–
[2], x2 = 0.8709	0.14 ± 0.00263	–
[2], x2 = 0.9225	0.0935 ± 0.00186	–
[2], x2 = 0.9675	0.046 ± 0.00117	–

BrCCCCBr [1,4-dibromobutane] + CCCCC(=O)OC
Details	excess molar enthalpy [kcal/mol]	mass density [kg/m3]
[1], x2 = 0.0627	–	1757.47 ± 6.4
[1], x2 = 0.1071	–	1711.91 ± 6
[1], x2 = 0.1637	–	1654.55 ± 5.4
[1], x2 = 0.2171	–	1601.18 ± 4.9
[1], x2 = 0.3252	–	1495.18 ± 4
[1], x2 = 0.4423	–	1383.13 ± 3.1
[1], x2 = 0.5031	–	1326.06 ± 2.7
[1], x2 = 0.621	–	1217.29 ± 2
[1], x2 = 0.6839	–	1160.44 ± 1.6
[1], x2 = 0.7415	–	1108.9 ± 1.3
[1], x2 = 0.8021	–	1055.26 ± 1.1
[1], x2 = 0.9296	–	944.62 ± 0.91
[2], x2 = 0.0592	0.0081 ± 0.000502	–
[2], x2 = 0.1366	0.0138 ± 0.000598	–
[2], x2 = 0.2206	0.0173 ± 0.000645	–
[2], x2 = 0.3061	0.0161 ± 0.000621	–
[2], x2 = 0.3802	0.0125 ± 0.000574	–
[2], x2 = 0.4461	0.00566 ± 0.000454	–
[2], x2 = 0.4526	0.00449 ± 0.000454	–
[2], x2 = 0.4992	-0.00124 ± 0.000382	–
[2], x2 = 0.5566	-0.00686 ± 0.000478	–
[2], x2 = 0.6213	-0.0107 ± 0.000526	–
[2], x2 = 0.6979	-0.0116 ± 0.00055	–
[2], x2 = 0.7947	-0.0115 ± 0.00055	–
[2], x2 = 0.9001	-0.0075 ± 0.000478	–

BrCCCBr [1,3-dibromopropane] + CCC(=O)OC
Details	excess molar enthalpy [kcal/mol]	mass density [kg/m3]
[1], x2 = 0.059	–	1909.4 ± 7.6
[1], x2 = 0.1261	–	1841.06 ± 6.8
[1], x2 = 0.1889	–	1776.8 ± 6.2
[1], x2 = 0.243	–	1720.78 ± 5.6
[1], x2 = 0.3657	–	1593.37 ± 4.5
[1], x2 = 0.4328	–	1523.29 ± 3.9
[1], x2 = 0.4901	–	1462.96 ± 3.5
[1], x2 = 0.5464	–	1403.57 ± 3.1
[1], x2 = 0.6165	–	1328.98 ± 2.6
[1], x2 = 0.7214	–	1216.43 ± 1.9
[1], x2 = 0.7712	–	1162.65 ± 1.6
[1], x2 = 0.8235	–	1105.81 ± 1.3
[1], x2 = 0.8863	–	1037.06 ± 0.96
[1], x2 = 0.9375	–	980.57 ± 0.84
[2], x2 = 0.0646	0.0167 ± 0.00127	–
[2], x2 = 0.1354	0.0273 ± 0.00158	–
[2], x2 = 0.2107	0.0338 ± 0.00179	–
[2], x2 = 0.2845	0.037 ± 0.00189	–
[2], x2 = 0.3517	0.0365 ± 0.00186	–
[2], x2 = 0.4137	0.0336 ± 0.00179	–
[2], x2 = 0.4627	0.03 ± 0.00167	–
[2], x2 = 0.4703	0.0293 ± 0.00165	–
[2], x2 = 0.5077	0.0264 ± 0.00155	–
[2], x2 = 0.5202	0.0247 ± 0.00151	–
[2], x2 = 0.5574	0.0222 ± 0.00143	–
[2], x2 = 0.566	0.0202 ± 0.00136	–
[2], x2 = 0.6073	0.0156 ± 0.00124	–
[2], x2 = 0.6129	0.0138 ± 0.00117	–
[2], x2 = 0.6726	0.00743 ± 0.00098	–
[2], x2 = 0.7385	0.000502 ± 0.000765	–
[2], x2 = 0.8065	-0.00323 ± 0.000837	–
[2], x2 = 0.873	-0.00351 ± 0.00086	–
[2], x2 = 0.9388	-0.00215 ± 0.000813	–

BrCCCBr [1,3-dibromopropane] + COC=O
Details	excess molar enthalpy [kcal/mol]	mass density [kg/m3]
[1], x2 = 0.168	–	1858.59 ± 6.8
[1], x2 = 0.2514	–	1796.92 ± 6.1
[1], x2 = 0.3294	–	1735.49 ± 5.5
[1], x2 = 0.4017	–	1674.57 ± 4.9
[1], x2 = 0.4684	–	1614.73 ± 4.4
[1], x2 = 0.5278	–	1558.51 ± 4
[1], x2 = 0.591	–	1495.15 ± 3.5
[1], x2 = 0.6438	–	1439.24 ± 3.1
[1], x2 = 0.7014	–	1374.75 ± 2.7
[1], x2 = 0.7953	–	1261.18 ± 2
[1], x2 = 0.8394	–	1203.31 ± 1.8
[1], x2 = 0.8849	–	1141.17 ± 1.4
[1], x2 = 0.9258	–	1082.23 ± 1.2
[2], x2 = 0.0766	0.0726 ± 0.00153	–
[2], x2 = 0.1698	0.136 ± 0.00239	–
[2], x2 = 0.2646	0.178 ± 0.00311	–
[2], x2 = 0.3543	0.204 ± 0.00359	–
[2], x2 = 0.4503	0.219 ± 0.00382	–
[2], x2 = 0.5147	0.221 ± 0.00382	–
[2], x2 = 0.5752	0.216 ± 0.00382	–
[2], x2 = 0.6318	0.206 ± 0.00359	–
[2], x2 = 0.6814	0.192 ± 0.00335	–
[2], x2 = 0.7238	0.176 ± 0.00311	–
[2], x2 = 0.7605	0.159 ± 0.00287	–
[2], x2 = 0.8277	0.123 ± 0.00227	–
[2], x2 = 0.8783	0.0928 ± 0.00182	–
[2], x2 = 0.9299	0.0593 ± 0.00131	–
